Test results published in patent US6451334B2, “Compositions and administration of compositions for the treatment of blood disorders” (priority 1997, dated 2002).
Entries after “also recorded” stand apart in the source; their conditions may differ. Read-outs that look alike come from different tables or passages of the source.

What was measured:
[1] = test system: Mononuclear cells from patients with sickle cell disease or thalassemia trait; assay: Erythroid colony (BFU-E) cultures in methylcellulose; format: cell-based, human; conditions: 0.2-0.5 mM, optimal growth factors; for % Increase over control: BFU-E
Procedure: Mononuclear cells from patients with sickle cell disease or thalassemia trait were isolated on Ficoll Hypague, washed, and cultured in methylcellulose media with optimal concentrations of hematopoietic growth factors IL-3, GM-CSF, Stem Cell Factor, IL6, 3 U/ml Eiythropoietin, insulin, bovine serum albumin, and 0.2-0.5 mM concentrations of test compounds of derivatives of cinnamic acid and hydrocinnamic acid. […] The following illustrates some representative cultures: […]

K562 cells = assay: Treatment of K562 cells and analysis of globin mRNA by primer extension; format: cell-based, human; conditions: for fold induction at 1000 µM: Homo sapiens, K562, 72 h, read-out: increase in γ-globin mRNA over constitutive levels in untreated control K562 cells; for stimulating γ globin compared to control cells (ranking in words) / Radioactivity Alpha Globin (α) mRNA / Radioactivity Fetal Globin (γ) mRNA / γ/α: K562 cells; for pattern of globin gene stimulation in K562 cells: α and γ globin mRNA; for Radioactivity Alpha Globin (α) mRNA / Radioactivity Fetal Globin (γ) mRNA: phosphorimager; for γ/α: ratio of globin mRNA radioactivity
Procedure: K562 cells kindly provided by Dr. George Atweh were cultured with 10% fetal bovine serum (Sigma, St. Louis, Mo.) and RPMI media (Grand Island Biological Company, Grand Island, N.Y.) in a humidified atmosphere with 5% CO2/95% air. Compounds were tested at a final concentration of 1 mM at neutral pH and included butyric acid, phenoxyacetic acid, dimethylbutric acid, alpha-methylhydrocionamic acid, 2,3, and 4-methoxyhydrocinnamic acid, dihydrocinnamic acid, methoxycinnamic acid, methoxyacetic acid, phenylpropionic acid, amino hydrocinnamic acid, DL β- and DL-βamino-n-butyric acid, cinnamic acid, and 2 methylhydrocinnamic acid (Aldrich Chemical Company, St. Louis, Mo.). Additional compounds studied included dimethylhydroxy acetic acid, dimethylpropionic acid, dimethylphenoxyacetic acid, and dimethylmethoxyacetic acid. After three days of culture with these agents, mRNA was purified and α, β, and γ globin mRNA was analyzed by primer extension using oligonucleotide primers and quantitation on a PhosphoImager as previously described.

32D cells = assay: Proliferation studies using 32D cells at low IL-3; format: cell-based, murine; conditions: 0.5 U/ml IL-3, 1 mM; listed as butyrate
Procedure: 32D cells were cultured in RPMI media with 10% fetal bovine serum (Sigma, St. Louis, Mo.), […] glutamine (GIBCO), and murine IL3 (20 U/ml) (Biosource International). Growth factor controls used included the standard concentration of IL-3 required for proliferation of these cells (25 U/ml) and a 50-fold lower concentration (0.5 U/ml), and erythropoietin (3 U/ml) or G-CSF ( U/ml), (Amgen, Thousand Oaks, Calif.). The test compounds were added at final concentrations of 1 mM. As a cell density of 2.5−10×10^5 is necessary for growth of this cell line, this density was maintained by passing the cells at three day intervals or by concentrating the cells when apoptosis occurred. Proportions of cells which were viable or apoptotic, and the fraction of cells in each part of the cell cycle was assessed by incubating the cells with Trypan blue and enumeration, and with propidium iodide incubation and FACScan analysis as previously described.
The effects of the representative compounds which have been synthesized or selected for resistance to beta oxidative metabolism and glucuronidation in stimulating γ globin gene expression in a human erythroid-like cell line and for their effects on cell growth utilizing a multi-lineage murine hematopoietic cell line, 32D. This cell line is dependent on high concentrations of IL-3 for growth. […]

[2] = test system: mice transgenic for a human beta globin locus YAC containing a silenced gamma globin gene; assay: In vivo experiments in mice transgenic for the human beta globin gene locus
Procedure: Three prototype compounds, methylhydrocinnamic acid (MHCA), phenoxyacetic acid (PAA), and dimethylbutyric acid PMB), were administered at doses from 100 to 250 mg/kg in two daily doses by intraperitoneal injection to mice transgenic for a human beta globin locus YAC containing a silenced gamma globin gene. Reticulocytes, newly synthesized red blood cells, were counted daily and non-alpha globin in MRNA was analyzed by Rnase protection. Only 50 microliters of blood were removed daily for testing. A 5 to 10-fold increase in reticulocytes and a 1.7-2.4 fold increase in gamma globin mRNA was observed within one week of therapy with the three protype compounds. In contrast, control mice to which normal saline was administered, with the same degree of phlebotomy for testing, had no significant changes in reticulocytes or globin in mRNA.

cell viability = assay: DNA fragmentation assays (cell viability); format: cell-based
Source text: Normal cell viability, the viability of an untransformed or uninfected cell, can be determined from analyzing the effects of the composition on one or more biological processes of the cell. Detrimental interference with one or more of these cellular processes becomes significant when the process becomes abnormal. Examples of quantitatable and qualifiable biological processes include the processes of cell division, protein synthesis, nucleic acid (DNA or RNA) synthesis, nucleic acid (principally DNA) fragmentation and apoptosis. Others processes include specific enzyme activities, the activities of the cellular transportation systems such as the transportation of amino acids by system A (neutral), system B (acidic) or system C (basic), and the expression of a cell surface protein. […] Abnormal cell division, for example, can be mitosis which occurs too rapidly, as in a malignancy, or unstably, resulting in programmed cell death or apoptosis, detected by increased DNA degradation. The determination of abnormal cell viability can be made on comparison with untreated control cells. […] Increased cell viability can be determined by those of ordinary skill in the art using, for example, DNA fragmentation analysis. […] Determinations of increased or decreased viability can also be concluded from an analysis of the results of multiple different assays. Where multiple tests provide conflicting results, accurate conclusions can still be drawn by those of ordinary skill based upon the cell type, the correctness or correlation of the tests with actual conditions and the type of composition.

[3] = test system: system A transport of amino acids; assay: System A transport of amino acids; format: cell-based
Source text: Normal cell viability, the viability of an untransformed or uninfected cell, can be determined from analyzing the effects of the composition on one or more biological processes of the cell. Detrimental interference with one or more of these cellular processes becomes significant when the process becomes abnormal. Examples of quantitatable and qualifiable biological processes include the processes of cell division, protein synthesis, nucleic acid (DNA or RNA) synthesis, nucleic acid (principally DNA) fragmentation and apoptosis. Others processes include specific enzyme activities, the activities of the cellular transportation systems such as the transportation of amino acids by system A (neutral), system B (acidic) or system C (basic), and the expression of a cell surface protein. […] Abnormal cell division, for example, can be mitosis which occurs too rapidly, as in a malignancy, or unstably, resulting in programmed cell death or apoptosis, detected by increased DNA degradation. The determination of abnormal cell viability can be made on comparison with untreated control cells. Compositions preferably increase normal cell viability. Increased cell viability can be determined by those of ordinary skill in the art using, for example, DNA fragmentation analysis. […]

in vivo = conditions: monkey, po
Procedure: Chronic indwelling venous and arterial catheters which were maintained using sterile technique for blood sampling. Compounds were administered by nasogastric tube and blood was collected to determine drug plasma levels at regular intervals following single oral doses. […] The test compounds were analyzed after ether extraction of the plasma, separation by HPLC, and quantitated by comparison to a spilled internal standard of heptanoic acid according to previously described methods.

[4] = test system: c-myb, c-myc, actin, and histone H3; assay: Northern blots of growth related genes in 32D cells; format: cell-based, murine; conditions: low IL-3, 1 mM, Northern blot
Procedure: Cell proliferation stimulation is transgenic mice, baboons, human cell culture, and a murine multi-lineage cell line by the active compounds, genes whose expression is increased early in cell proliferation induced by hematopoietic growth factors such as IL-3 and erythropoietin were examined. RNA was extracted from 32D cells treated with the compounds for one day and for 11 days. Northern blots were prepared with probes for the early growth related genes c-myb and c-myc and beta actin and histone H3 were used as controls. Increased expression of c-myb occurs transiently, and early, when growth is induced by erythropoietin and IL-3.
The first lane is from cells cultured in no IL-3, lane 2 in 25 U/ml murine IL3 and lanes 3-18 have low IL-3 concentration (0.5 U/ml) plus test compounds. […] All compounds were tested here at 1 mM. […] 20 ug of total RNA from each sample were subjected to Northern blot analysis using specific probes for c-myb, c-myc, actin, and histone H3. One day and 11-day samples from the same treated cells were quantitated by PhosphoImager.

[5] = primer extension, 1 mM, three days of culture, FIG. 1

SMILES	fold induction at 1000 µM (K562 cells; [5])	Radioactivity Alpha Globin (α) mRNA (K562 cells; 1 mM)	Radioactivity Fetal Globin (γ) mRNA (K562 cells; 1 mM)	γ/α (K562 cells; 1 mM)	other results
COc1ccc(C=CC(=O)O)cc1 [4 Methoxycinnamic acid]					Mean BFU-E/culture 4 cultures averaged (per 0.2 million cells) [1]: 191; % Increase over control [1]: 8.5%
CCCC(=O)O [Butyric acid, butyric acid, reference compound]	2				stimulating γ globin compared to control cells (ranking in words) (K562 cells; 1 mM): most active; pattern of globin gene stimulation in K562 cells (K562 cells): stimulated expression of both α and γ globin MRNA; effect on 32D cells with low IL-3 (32D cells): decreased cell proliferation and cell death; also recorded: Cells die
O=C(O)COc1ccccc1 [PAA, phenoxyacetic acid]		507148	2755891	5.4	fold induction at 1000 µM (K562 cells): 2.4 to 26; stimulating γ globin compared to control cells (ranking in words) (K562 cells; 1 mM): most active; pattern of globin gene stimulation in K562 cells (K562 cells): stimulated expression of both α and γ globin MRNA; Reticulocytes (fold increase) ([2]; 100 to 250 mg/kg in two daily doses, intraperitoneal, within one week): 2.5 to 7 fold; cell viability / DNA fragmentation (cell viability): reduce DNA fragmentation; system A transport of amino acids [3]: do not significantly alter; half-life (in vivo): 6.5 h
NC(CC(=O)O)c1ccccc1 (stereo not drawn) [ST 30, β-aminohydrocinnamic acid]					c-myb induced [4]: 2 fold
COc1ccccc1C=CC(=O)O [ST 32, 2-methoxycinnamic acid]	2.4 to 26	36751	957146	26.0	stimulating γ globin compared to control cells (ranking in words) (K562 cells; 1 mM): most active
Cc1ccccc1CCC(=O)O [ST 33, 2 methyl hydrocinnamic acid]	2.4 to 26	89473	1388899	15.5	stimulating γ globin compared to control cells (ranking in words) (K562 cells; 1 mM): most active; Mean BFU-E/culture 4 cultures averaged (per 0.2 million cells) [1]: 212; % Increase over control [1]: 20.5%
COc1ccccc1/C=C\C(=O)O [ST 34, cis-2-methoxycinnamic acid]	2.4 to 26	105452	2255627	21.4	pattern of globin gene stimulation in K562 cells (K562 cells): decreased expression of α globin
COc1ccc(CC(=O)O)cc1OC [ST 37, 3,4 dimethoxy phenyl acetic acid]	2.4 to 26	106875	1206529	11.3	
COc1ccc(CCC(=O)O)cc1OC [ST 38, 3-3,4-dimethoxy phenyl propionic acid]		191985	1858358	9.7	
COc1ccc(OC)c(CC(=O)O)c1 [ST 40, 2,5 {dimethoxy phenyl} acetic acid]		85941	1240100	14.4	
COc1cc(C=CC(=O)O)cc(OC)c1O [ST 44, 3,5 dimethoxy 4-hydroxy cinnamic acid]	2.4 to 26				Mean BFU-E/culture 4 cultures averaged (per 0.2 million cells) [1]: 215; % Increase over control [1]: 11%
O=C(O)/C=C/c1ccccc1 [ST 47, transcinnamic acid]	2.4 to 26				Mean BFU-E/culture 4 cultures averaged (per 0.2 million cells) [1]: 322; % Increase over control [1]: 18%
CCC(N)C(=O)O (stereo not drawn) [alpha amino-n-butyric acid, reference compound]					inducibility of gamma (fetal) globin in the transgenic mice ([2]; mouse, in vivo): has not been readily inducible
CCCC(=O)OCC [butyric acid ethyl ester]					cell viability / DNA fragmentation (cell viability): reduce DNA fragmentation
CC(C)C(N)=O [isobutyramide, reference compound]					cell viability / DNA fragmentation (cell viability): decrease cell viability
